# Test results: patent publication USRE36139E, “Hydroquinone derivative” (Nippon Hypox Laboratories Incorporated, priority 1995, dated 1999)
# Key:
# [1] = test system: lipid of rat liver microsome; assay: Inhibition activity against hyperoxidation of lipid of rat liver microsome; type: biochemical, male Sprague Dawley (SD) rats; details: for antioxidant activity (conclusion from Table 2): result in words; for antioxidant activity: general statement in words, no test named at the place
# Experimental: [Inhibition activity against hyperoxidation of lipid of rat liver microsome ] (1) Preparation of rat liver microsome suspension, A plurality of male Sprague Dawley (SD) rats (weighing […]) were prepared. Each rat was anesthetized with pentobarbital, and then subjected to celiotomy. A cannula was introduced into the portal vein of each rat, the abdominal large veins were sectioned, and 500 ml of cold 0.9% NaCl was injected into the portal veins. Livers were extracted from individual rats, and the livers were cut to pieces in 1.15% KCl and homogenized with ice cooling. Then, 1.15% KCl was further added to obtain a 30% liver homogenized solution. The above homogenized solution was centrifugally separated at 8,000 g (g: gravitation acceleration) for 10 minutes, and the resultant supernatant was recovered. […] The so-prepared suspension was stored at -20° C. before a test described in the following (2), and it was used within 1 week after the preparation. (2) Test on inhibition activity against hyperoxidation of lipid As test compounds, the hydroquinone (HQ) derivatives obtained in Preparation Examples 1 to 12, a known hydroquinone derivative which was a compound of the formula (I) in which R^1 was methyl (hereinafter referred to as HQ1) and BHT were respectively tested on their inhibition activities against hyperoxidation of lipid in the following manner. First, 0.1 ml of the liver microsome suspension obtained in the above (1), 0.1 ml of reduced […] (NADPH) (final concentration 2 mM), 0.1 ml of adenosine 5'-diphosphate (ADP) (final concentration 10 mM) and 0.1 ml of a solution of one of the test compounds whose concentration was adjusted as shown in Table 2 with 10% dimethylformamide (DMF) were added to a tris-HCl buffer (167 mM KCl, 74 mM tris-HCE buffer (TRIS), pH 7.4), and the resultant mixture was warmed at 37° C. for 5 minutes. Then, 0.1 ml of FeCl3 (final concentration 0.1 mM) was added, and the mixture was warmed at 37° C. for 20 minutes. […] Then, 0.2 ml of 8.1% sodium dodecylsulfate (SDS), 1.5 ml of an acetic acid buffer (prepared by adjusting 20% acetic acid containing 0.27 mM HCl to pH 3.5 with 10N NaOH) and 1.5 ml of 0.8% thiobarbituric acid were added to the cooled reaction mixture, and the resultant mixture was warmed over a boiling water bath for 20 minutes. […] The mixture was vigorously stirred. The reaction mixture was centrifugally separated at 2,000 rpm for 10 minutes, and the resultant supernatant was measured for an absorbance at 532 nm to determine a thiobarbituric acid reaction amount. […] In Control, the solution of the test compound in 10% DMF was replaced with 0.1 ml of a 10% DMF solution, and the above procedures were repeated to determine a peroxidized lipid amount. In Blank, each of 0.1 ml of NDAPH, 0.1 ml of ADP and 0.1 ml of FeCl3 were replaced with 0.1 ml of water, the solution of the test compound in 10% DMF was replaced with 0.1 ml of a 10% DMF solution, and the above procedures were repeated to determine a peroxidized lipid amount. The inhibition ratio of the lipid peroxidation reaction was calculated on the basis of the following equation. Inhibition ratio (%)=[1-(OD1 -OD3)/(OD2 -OD3)]×100 OD1 : Absorbance when test compound is added. OD2 : Absorbance of Control OD3 : Absorbance of Blank
# mice = assay: Acute toxicity test by simple oral administering; type: in vivo, Female ICR mice; details: maximum dose 500 mg/kg, 14 days observation
# Excerpt: Female ICR mice of 8 weeks age were used to carry out an acute toxicity test by simple oral administering.
# [2] = DPPH elimination ability (active organic radical species elimination ability); type: biochemical; details: FIG. 1; absorbance at 517 nm; 0.02 ml of 10^-2 M DMF solution added to 2 ml of 10^-4 M DPPH in ethanol; result in words
# Experimental: [DPPH elimination ability]
# The hydroquinone derivative obtained in Preparation Example 5 and BHT as test compounds were measured for the ability to eliminate DPPH (α,α-diphenyl-β-picrylhydrazyl) (active organic radical species elimination ability) in the following manner.
# The test compounds were respectively dissolved in DMF to prepare DMF solutions having a test compound concentration of 10^-2 M.
# Then, 0.02 ml each of the above DMF solutions were respectively added to 2 ml of an ethanol EtOH solution containing 10^-4 M of DPPH, and the resultant solutions were measured for absorbance (ODS) at 517 nm at predetermined time intervals. The DPPH elimination ability of each test compound was determined on the basis of these measurement results. In Control, the DMF solution of the test compound was replaced with DMF itself,
# The elimination ability of each test compound was determined as a reduction ratio of ODS to the absorbance in Control.
# laboratory animals = details: result in words; cited from earlier work
# rats = details: liver, large intestine, small intestine and gland of external acoustic meatus; cited from earlier work
# Salmonellae = details: result in words; cited from earlier work
structure (smiles),measurement,setting,value
CCCCCCCCCCCCOc1cc(C)c(O)c(C)c1C [Preparation Example 7],Inhibition ratio of lipid peroxidation,"[1]; 10^-5 M test compound, 10 µM",63.9%
same,Inhibition ratio of lipid peroxidation,"[1]; 10^-6 M test compound, 1 µM",30.8%
"COc1ccc(O)cc1 [HQ1, reference compound]",Inhibition ratio of lipid peroxidation,"[1]; 10^-5 M test compound, 10 µM",37.8%
CCCCCCCCOc1ccc(O)cc1 [Preparation Example 1],mortality,mice,No mice were found to die
same,Inhibition ratio of lipid peroxidation,"[1]; 10^-5 M test compound, 10 µM",99.7%
same,Inhibition ratio of lipid peroxidation,"[1]; 10^-6 M test compound, 1 µM",9.8%
same,antioxidant activity (conclusion from Table 2),[1],excellent antioxidant activity over the known hydroquinone derivative HQ1
CCCCCCCCCCOc1cc(C)c(O)c(C)c1C [Preparation Example 6],Inhibition ratio of lipid peroxidation,"[1]; 10^-5 M test compound, 10 µM",99.9%
same,Inhibition ratio of lipid peroxidation,"[1]; 10^-6 M test compound, 1 µM",38.3%
CCCCCCOc1ccc(O)cc1 [Preparation Example 10],Inhibition ratio of lipid peroxidation,"[1]; 10^-5 M test compound, 10 µM",99.1%
same,Inhibition ratio of lipid peroxidation,"[1]; 10^-6 M test compound, 1 µM",8.8%
same,antioxidant activity,[1],excellent antioxidant activity
"CCCCOc1ccc(O)cc1 [Preparation Example 9, 1-butylhydroquinone]",Inhibition ratio of lipid peroxidation,"[1]; 10^-5 M test compound, 10 µM",86.1%
same,Inhibition ratio of lipid peroxidation,"[1]; 10^-6 M test compound, 1 µM",10.8%
same,antioxidant activity,[1],excellent antioxidant activity
CCCCCCCCCCOc1ccc(O)cc1 [Preparation Example 2],Inhibition ratio of lipid peroxidation,"[1]; 10^-5 M test compound, 10 µM",79.5%
same,Inhibition ratio of lipid peroxidation,"[1]; 10^-6 M test compound, 1 µM",1.8%
same,antioxidant activity (conclusion from Table 2),[1],excellent antioxidant activity over the known hydroquinone derivative HQ1
CCCCCCOc1cc(C)c(O)c(C)c1C [Preparation Example 4],Inhibition ratio of lipid peroxidation,"[1]; 10^-5 M test compound, 10 µM",100.0%
same,Inhibition ratio of lipid peroxidation,"[1]; 10^-6 M test compound, 1 µM",98.9%
CCCCCCCCOc1cc(C)c(O)c(C)c1C [Preparation Example 5],DPPH elimination ability,[2],excellent DPPH elimination ability over BHT
same,Inhibition ratio of lipid peroxidation,"[1]; 10^-5 M test compound, 10 µM",100.0%
same,Inhibition ratio of lipid peroxidation,"[1]; 10^-6 M test compound, 1 µM",74.8%
"Cc1cccn2c1nc1ccc(N)nc12 [Glu-P-1, 2-amino-6-methyldipyrido[1,2-a:3',2'-d]imidazole]",carcinogenic activity,laboratory animals,carcinogenic activity to laboratory animals
same,incidence of cancer,rats,high rate of incidence of cancer
same,mutagenic activity,Salmonellae,high mutagenic activity to Salmonellae
"CCCCCCCCCCCCOc1ccc(O)cc1 [Preparation Example 11, 1-dodecylhydroquinone]",Inhibition ratio of lipid peroxidation,"[1]; 10^-5 M test compound, 10 µM",73.4%
same,Inhibition ratio of lipid peroxidation,"[1]; 10^-6 M test compound, 1 µM",6.3%
same,antioxidant activity,[1],excellent antioxidant activity
"CCOc1cc(C)c(O)c(C)c1C [Preparation Example 12, 1-ethyl-2,3,5-trimethylhydroquinone]",mortality,mice,No mice were found to die
same,Inhibition ratio of lipid peroxidation,"[1]; 10^-5 M test compound, 10 µM",87.2%
CCCCCCOc1c(C)cc(O)c(C)c1C [Preparation Example 8],Inhibition ratio of lipid peroxidation,"[1]; 10^-5 M test compound, 10 µM",98.3%
same,Inhibition ratio of lipid peroxidation,"[1]; 10^-6 M test compound, 1 µM",40%
"CCCCOc1cc(C)c(O)c(C)c1C [Preparation Example 3, 1-butyl-2,3,5-trimethylhydroquinone]",Inhibition ratio of lipid peroxidation,"[1]; 10^-6 M test compound, 1 µM",75.9%
